Values of other authors as cited in US9463243B2, “Amorphous medicinal fine particles produced by pulsed laser ablation in liquid and the production method thereof” (IMRA AMERICA, INC., priority 2012, dated 2016).

water solubility: water-insoluble
SMILES: COc1cc(/C=C/C(=O)CC(=O)/C=C/c2ccc(O)c(OC)c2)ccc1O [Curcumin, curcumin]
